Values of other authors as cited in patent publication US7265128B2, “3-amino-4-phenylbutanoic acid derivatives as dipeptidyl peptidase inhibitors for the treatment or prevention of diabetes” (Merck & Co., Inc., priority 2003, dated 2007).
Each block holds one molecule with its values, some of them ahead of it.

Columns and labels:
rats = conditions: survival doubled from day 7
mouse = conditions: cyclophosphamide-induced neutropenia
DP-IV = target: T1, DP-IV (Homo sapiens, UniProt P27487)
T1 construct: GRF is rapidly degraded in plasma to GRF[3-44]
T1 sequence (P27487 whole entry): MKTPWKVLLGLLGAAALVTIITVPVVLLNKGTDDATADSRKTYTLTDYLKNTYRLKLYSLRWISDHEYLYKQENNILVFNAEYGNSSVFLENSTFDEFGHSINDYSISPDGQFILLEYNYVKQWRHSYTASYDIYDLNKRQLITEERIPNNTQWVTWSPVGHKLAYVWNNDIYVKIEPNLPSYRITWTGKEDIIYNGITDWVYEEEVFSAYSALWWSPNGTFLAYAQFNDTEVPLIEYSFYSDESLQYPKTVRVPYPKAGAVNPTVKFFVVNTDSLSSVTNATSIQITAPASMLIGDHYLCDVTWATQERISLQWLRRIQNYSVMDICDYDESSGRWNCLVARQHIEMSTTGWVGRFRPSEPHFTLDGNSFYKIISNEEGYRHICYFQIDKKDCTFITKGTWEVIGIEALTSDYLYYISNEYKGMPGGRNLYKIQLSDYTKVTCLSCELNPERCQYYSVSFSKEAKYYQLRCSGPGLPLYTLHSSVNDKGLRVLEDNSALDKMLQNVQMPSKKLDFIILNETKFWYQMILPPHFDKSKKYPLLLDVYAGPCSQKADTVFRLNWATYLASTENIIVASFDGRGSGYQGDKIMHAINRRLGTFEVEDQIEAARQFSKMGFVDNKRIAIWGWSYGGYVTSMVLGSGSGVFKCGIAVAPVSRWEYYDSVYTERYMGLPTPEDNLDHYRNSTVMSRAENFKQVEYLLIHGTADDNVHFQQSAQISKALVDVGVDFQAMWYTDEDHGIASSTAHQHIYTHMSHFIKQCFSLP

Molecule: CC(C)N1CCC(c2ccccc2)(c2ccccc2)CC1 [Prodipine, Pro-Pro-diphenyl-phosphonate]
cardiac allograft survival (rats): 14 day

Molecule: CC(C)[C@H](N)C(=O)N1CCC[C@H]1B(O)O [Val-Boro-Pro]
hematopoiesis (mouse): stimulated hematopoiesis

degradation of GRF in plasma to GRF[3-44] (DP-IV): prevented
Molecule: diprotin A
